Tests used:
[1] = humans; cited from earlier work
[2] = test system: tetranor-PGEM EIA Antiserum; test: Cross-reactivity testing of tetranor-PGEM antibody (polyclonal antiserum) by competitive EIA; type: binding, rabbit; conditions: for Cross-reactivity (% XR): Specificity of the tetranor-PGEM EIA Antiserum, Example 4 kit performance characteristics; for % XR: percent cross-reactivity = IC50 of tetranor-PGEM / IC50 of test compound x 100, Example 2, antiserum raised with tetranor-PGEM-KLH immunogen
Procedure: (§1) Rabbit immunizations were performed by Robert Sargeant Antibodies (655 Ash Street, Ramona, Calif. 92065) as follows: Male New Zealand White Rabbits 9-10 weeks of age, were immunized with Complete Freund's Adjuvant (CFA) initially, followed by Incomplete Freund's Adjuvant (IFA) for all subsequent injections. Immunogen 1 (200 μg; prepared in Step A, Procedure 1 of this Example; alternatively, Immunogen 1 A, which was prepared in Step A, Procedure 1A of this Example, has been used to produce antiserum according to this immunization method) was injected for the first immunization and 100 μg for boosts. The immunogen was diluted to one milliliter with sterile saline and combined with one milliliter of the appropriate adjuvant. The antigen and adjuvant were mixed thoroughly to form a stable emulsion which is injected subcutaneously. Blood was collected from the central ear artery and allowed to clot and retract. The serum was decanted and clarified by centrifugation before freezing.
(§2) Antisera (AS) from multiple bleeds from multiple rabbits were screened by titration on a 96-well microplate with detection of specific Ab based on its ability to bind the tetranor-PGEM-AChE conjugate (diluted 1:1000). The next screen consisted of a sensitivity screen selecting for AS with a suitable detection limit. The next screen excluded AS with unacceptably high cross-reactivity (experiment described below) with parent metabolites, tetranor-PGFM, and tetranor-PGDM. The final screen consisted of urinary measurements to confirm normal biological levels of tetranor-PGEM, and recovery experiments.
(§3) To determine cross-reactivity of an antibody, set up the standard curve using optimal tracer and Ab dilutions according the kit instructions. Tetranor-PGEM was diluted to 10 ng/ml for the first point in the standard curve and diluted 2.5-fold serially 7 times. First standard dilutions (10 μg/ml) of tetranor-PGDM, tetranor-PGJM, tetranor-PGAM, and tetranor-PGFM were prepared and 7 additional 6-fold serial dilutions were performed. IC50s of all compounds were determined and each percent cross-reactivity (% XR) values of the potentially cross-reactive compounds was determined by dividing the IC50 of tetranor-PGEM by the IC50 of the test compound and multiplying by 100. See the chart below for determined % XR values.

tetranor-PGAM antibody = test: Cross-reactivity testing of tetranor-PGAM antibody (polyclonal antiserum) by competitive EIA; type: binding, rabbit; conditions: percent cross-reactivity = IC50 of tetranor-PGAM / IC50 of test compound x 100; Example 3, antiserum raised with tetranor-PGAM-KLH immunogen
Procedure: as §1, with “Immunogen 3” for “Immunogen 1”, “prepared according to” for “prepared in”, “Step A” for “Step A, Procedure 1”, “this Example)” for “this Example; alternatively, Immunogen 1 A, which was prepared in Step A, Procedure 1A of this Example, has been used to produce antiserum according to this immunization method)”
as §2, with “tetranor-PGAM-AChE” for “tetranor-PGEM-AChE”, “(Tracer 4, diluted” for “(diluted”, “tetranor-PGAM,” for “tetranor-PGEM,”, “experiments. Only one AS passed all screens.” for “experiments.”
as §3, with “Tetranor-PGAM” for “Tetranor-PGEM”, “tetranor-PGEM,” for “tetranor-PGJM, tetranor-PGAM,”, “tetranor-PGAM” for “tetranor-PGEM”

Compound	infused dose of PGE2 that appears as tetranor-PGEM in the urine [1]	Cross-reactivity (% XR) [2]	% XR [2]	% XR (tetranor-PGAM antibody) [%]
CCCCC[C@H](O)/C=C/[C@H]1[C@H](O)CC(=O)[C@@H]1C/C=C\CCCC(=O)O [PGE2]	About 15%	–	–	–
O=C(O)CCCCC(=O)CC[C@H]1C=CC(=O)[C@@H]1CCC(=O)O [tetranor-PGAM]	–	2,034%	2,034%	100
O=C(O)CCCCC(=O)CC[C@H]1C(=O)C[C@H](O)[C@@H]1CCC(=O)O [tetranor-PGDM]	–	1.5%	1.5%	5.3
O=C(O)CCCCC(=O)CC[C@H]1[C@H](O)CC(=O)[C@@H]1CCC(=O)O [tetranor-PGEM, 11α-hydroxy-9,15-dioxo-13,14-dihydro-2,3,4,5-tetranor-prostan-1,20-dioic acid]	–	100%	100%	25.1
O=C(O)CCCCC(=O)CC[C@@H]1[C@@H](CCC(=O)O)[C@@H](O)C[C@H]1O [tetranor-PGFM]	–	7.8%	7.8%	1.0
O=C(O)CCCCC(=O)CC[C@H]1C(=O)C=C[C@@H]1CCC(=O)O [tetranor-PGJM]	–	27.4%	27.4%	–
